A short description of data set [1]: Dissolution of the compounds for the stock solution. To be noted: stock solution of 100 mM; visible observation. The data set is classed as physicochemical. As to the method: In order to select the optimum concentration of NOSH and NOSH-ASA, a concentration gradient was performed. To achieve the gradient, a stock solution of 100 mM was prepared. […] Therefore, it was decided to prepare a stock solution using 100% DMSO and then dilute the composition to 0.1% DMSO.

The test system of data set [2] is tomato seeds (4 different varieties). The data set is described as follows: Tomato seed priming under salt stress conditions. The data set is classed as in vivo. To be noted: for fruit yield per plant: 50 μM in 0.1% DMSO, seeds soaked 12 hours, vs untreated, hydroprimed, solvent-treated seeds. As to the method: A experiment has been carried out, whereby the effect of NOSH-A pre-treatment of tomato seeds was examined under salt stress conditions. The treatments were as follows: • Untreated tomato seeds (4 different varieties—CV1-4) • Hydroprimed seeds (soaked in dH2O) • NOSH-A control treated seeds (soaked in 0.1% DMSO) • NOSH-A primed seeds NOSH-A was initially prepared in a stock solution of 50 mM using DMSO. The working solution was made by diluting the stock in water to reach a final concentration of 50 μM in 0.1% DMSO. Seed priming was performed by soaking the seeds in NOSH-A solution for 12 hours at 25° C. Then the seeds were placed in gauze under the laminar flow for air-drying, till reaching their initial weight. The seeds were sown in plastic seedling trays (1 seed per pot) filled with sterile soil, covered with a transparent film, and let to germinate in a growth chamber room under certain conditions of 24/20° C. day/night temperatures, 60-70% RH, with a photosynthetic photon flux density of 120 μmol m^2 s^−1 and a 16/8-h photoperiod. At day 7 after sowing, seedlings were transplanted into square plastic pots filled with sterilized pot soil, transferred into a glasshouse, and let to grow until day 24. Growing plants were watered three times per week. Plants were then watered with saline solution (7.8-12.0 dS/m), while controls were watered with dH2O, until fruiting. A total of four harvests were carried out, with yield data being the total of the four harvesting events. All analyses were carried out using six independent plants per treatment.

The test system of data set [3] is Arabidopsis thaliana seeds (ecotype Col-0). The data set is described as follows: Seed treatment at pre-germination stage, plant growth (rosette fresh weight, projected rosette area). To be noted: for concentration resulting in highest increase in fresh weight: screening at concentration gradient 0-100 μM, rosettes 22 DAS, seeds soaked 12 hrs. The data set is classed as in vivo. As to the method: Stock solutions of NOSH or NOSH-ASA were each prepared by initial dissolution in 100% DMSO. From each stock solution, treatment compositions at a 0-100 μM concentration gradient (diluted in 0.1% v/v DMSO) were prepared. Arabidopsis thaliana seeds (ecotype Col-0) were treated at their pre-germination stage with different concentrations of NOSH or NOSH-aspirin solutions (0-100 μM concentration gradient) by soaking the seeds in Petri dishes at room temperature and in the dark. After 12 hrs, the seeds were air dried for 2-3 hrs. Four seeds per pot were sown in soil medium and stratified at 4° C. for 4 days to achieve germination uniformity. Then the pots were transferred to the growth room and allowed to grow under controlled conditions of 22° C., and a 16-hr day (100-120 μmol m^−2 s^−1)/8-hr night regime for 22 days (d). Nine Days After Stratification (DAS), one seedling, which had the projected rosette area closest to the median area of the treatment, was selected from the four seedlings sown per pot. Four independent experiments were carried out using a minimum of 6-8 independent plants as replicates per experiment. Projected Rosette Area (PRA) was determined by taking pictures of the rosettes 22 days after stratification (DAS). The pictures were subsequently analyzed using ImageJ software (http://rsb.info.nih.gov/ij/) to measure the size of each plant. Represented rosette sizes were calculated by taking the average of the individual plant per repeat and then per treatment. The same rosettes were used also for fresh weight measurements. In this connection it is noted that in preliminary experiments no substantial differences between the ratio of fresh weight and the ratio of dry weight under optimum soil water content was observed. Statistical analysis was performed with SAS (Version 9.4 of the SAS System for windows 7 64 bit by using the mixed model analysis. Copyright C 2002-2012 SAS Institute Inc. Cary, NC, USA (www.sas.com). Seeds were treated by seed soaking for 12 hr with NOSH at 50 μM. Four seeds were then sown in soil medium within a pot and allowed to grow for 22 days under the conditions described above.

The test system of data set [4] is baby spinach cultivars (Sunangel RZ, Scarne F1PV-1656). The data set is described as follows: Baby spinach seed priming, growth under heat stress. The data set is classed as in vivo. To be noted: day 37-40° C., 50 μM seed priming 12 hours. As to the method:
NOSH-A was initially prepared in a stock solution of 50 mM using DMSO. The working solution was made by diluting the stock in water to reach a final concentration of 50 μM in 0.1% DMSO. Seed priming was performed by soaking the seeds of two baby spinach cultivars (Sunangel RZ, Scarne F1PV-1656) in NOSH-A solution for 12 hours at 25° C. Then the seeds were placed in gauze under the laminar flow for air-drying, till reaching their initial weight. Seeds were sown in the soil in a commercial greenhouse (FIG. 6a), and let to grow until day 30. Average day temperature ranged between 37-40° C., while night temperature ranged between 21-23° C. Growing plants were watered three times per week. All agronomic analyses were carried out using a minimum of nine independent plants per treatment, while survival percentage was calculated from a total of 300 plants per treatment.

Data set [5] concerns Arabidopsis thaliana seeds (ecotype Col-0). The data set is described as follows: Leaf 3 area and epidermal cell analysis of plants from treated seeds. To be noted: 50 μM at seed level, carrier 0.1% DMSO. It counts as in vivo. As to the method:
For the leaf area analysis, 3rd true leaves were harvested from all the replicates and then the leaves were cleared in 100% ethanol, mounted in lactic acid on microscope slides, and photographed. Leaf areas were measured with the ImageJ software (http://rsb.info.nih.gov//ij/). Abaxial epidermal cells were drawn with a DMLB microscope (Leica) fitted with a drawing tube and a differential interference contrast objective. Drawings were scanned and analyzed using automated image analysis algorithms (Andriankaja et al. 2012). Subsequently, drawings were used to measure average cell size, from which the total pavement cell number was calculated. The stomatal index was defined as the percentage of stomata in relation to the number of epidermal cells. Statistical analysis was performed with SAS (Version 9.4 of the SAS System for windows 7 64 bit by using the mixed model analysis. Copyright C 2002-2012 SAS Institute Inc. Cary, NC, USA (www.sas.com). Finally, the ratio of leaf 3 area, pavement cell area, pavement cell number and stomata index measured on plants treated at seed level with 50 μM NOSH compared with plants received from carrier-treated seeds (seeds treated with 0.1% DMSO) were determined, the results of which is provided in FIG. 4 (values are averages of three biological repeats, with each repeat consisting of 6-8 plants).

For data set [6], the system named is plants from treated seeds. The data set can be described thus: Stress protection: seed priming by vacuum infiltration, plants left un-watered (drought). It counts as in vivo. As to the method: Seeds were treated with a NOSH composition comprising 30% methanol and the priming application method was vacuum infiltration (90 sec). […] Plants were growth on optimum condition until 37 days and then were left un-watered for 7 days. Observation on plant phenotype was performed and interesting differences on the plant appearance were recorded. […] This supported the conclusion that NOSH compounds enhance plant tolerance, (probably, however, without being bound to this hypothesis, by avoiding the accumulation of stress-related pigments such as anthocyanin).

[7] abbreviates: control and high salinity conditions, 50 μM seed priming.

SMILES strings stand for the structures. Some results are limits rather than exact numbers.

`O=C(CCCO[N+](=O)[O-])Oc1ccccc1C(=O)Oc1ccc(-c2cc(=S)ss2)cc1` [NOSH-ASA]: the “dissolution directly in 0.1% DMSO” value in data set [1] is on record as “did not completely dissolve”. In addition, in data set [2] (setting [7]), the fruit dry weight entry is recorded as “significant improvements” and the fruit fresh weight result was “significant improvements”. The “fruit yield per plant” value in data set [2] (control conditions) is “significant improvement”. Further, the “fruit yield per plant” value in data set [2] (high salinity conditions (7.8-12.0 dS/m)) is “significant improvement”. Also, the “concentration resulting in highest increase in fresh weight” value in data set [3] amounted to 10 µM. In data set [4], the average leaf area result was “significant improvements” and the “total plant leaf area” value is reported as “significant improvements”. For the same molecule, the “survival percentage of plants” value in data set [4] (vs untreated, hydroprimed, solvent-treated seeds) is reported as “clear improvement”.
On to `O=C(CCCO[N+](=O)[O-])Oc1ccc(-c2cc(=S)ss2)cc1` [NOSH], for which the “dissolution directly in 0.1% DMSO” value in data set [1] is recorded as “did not completely dissolve”. The “growth of the leaves” value in data set [3] (50 μM, seeds soaked 12 hr, 22 DAS, vs no NOSH treatment) is reported as “increased growth of the leaves”. Moreover, the “fresh weight of rosettes, ratio to carrier-treated seeds” value in data set [3] (50 μM, seeds soaked 12 hr, 22 days, p value 0.0001) is on record as “statistically significant (p values indicated in the Figures) increase”. Moreover, in data set [3], the “concentration resulting in highest increase in fresh weight” value was found to be 50 µM. Further, the “projected rosette area (PRA) ratio, treated seeds vs carrier-treated seeds” value in data set [3] (seeds exposed before germination, carrier 0.1% DMSO) is above 1.5 fold. Moreover, the “promoting growth following treatment at the seed level” value in data set [3] (treatment of seeds before germination) is given as “more effective in promoting growth as compared to NOSH-NSAID”. In addition, in data set [5], the “leaf 3 area, ratio to carrier-treated seeds” value is listed as “statistically significant (p values indicated in the Figures) increase”; the “pavement cell area, ratio to carrier-treated seeds” value is listed as “statistically significant (p values indicated in the Figures) increase”; the “pavement cell number, ratio to carrier-treated seeds” value is listed as “statistically significant (p values indicated in the Figures) increase”; the “stomata index, ratio to carrier-treated seeds” value is “statistically significant (p values indicated in the Figures) increase”. Besides, the “seed germination after soaking” value in data set [6] (NOSH composition comprising 30% methanol, soaking 4 h, 12 h and 24 h, attributed to high percentage of methanol) was “no seed germination”. For the same molecule, the “plant phenotype / tolerance after drought” value in data set [6] (composition with 30% methanol, vacuum infiltration 90 sec, un-watered 7 days after 37 days, vs carrier-treated drought plants) is “greener and with less anthocyanin on the leaves”.

Source of the values: US20260231848A1, “A METHOD OF TREATING SEEDS AND SEEDS PRODUCED THEREBY” (RESEARCH FOUNDATION OF THE CITY UNIVERSITY OF NEW YORK, priority 2023, published 2026).
